Results: patent publication US11672821B2, “Methods for treating respiratory conditions using ionic aqueous polysaccharide compositions” (Gerolymatos International S.A., priority 2013, dated 2023)

Experiments:
IL-8 = assay: HCPt-induced IL-8 secretion in three-dimensional nasal epithelial cultures from an allergic donor, ELISA; type: cell-based, human; settings: 30 μl of 20 mM HCPt, 16 hours exposure; peak of IL-8 secretion at Day 4
[1] = system: human nasal epithelial cells; assay: Cilia beating frequency (CBF) in three-dimensional nasal epithelial cultures from an allergic donor; type: cell-based; settings: Day 4, versus control

Q: How did the “IL-8 secretion with HCPt alone” value (IL-8) turn out when `[Cl][Pt-2]([Cl])([Cl])([Cl])([Cl])[Cl].[NH4+].[NH4+]` [HCPt, Ammonium hexachloroplatinate] was run?
A: efficiently induced inflammation

Q: And the “cilia beating frequency (CBF) with HCPt alone” value [1]?
A: reduced CBF versus control
